The source of these data is US8058475B2, “Substituted cyclohexylmethyl compounds” (Gruenenthal GmbH, priority 2005, dated 2011).

The target of this assay is human μ-opiate receptor (Homo sapiens, UniProt P35372). Nature of the assay: Affinity for the human μ-opiate receptor ([3H]-naloxone displacement, SPA, CHO-K1 membrane preparation). It is filed as binding. The settings on record: for inhibition at 1 µM: read-out: μ-Opioid receptor, % inhibition [1 μM]; for Ki: read-out: μ-Opioid receptor, Ki.
Chain of human μ-opiate receptor (P35372 whole entry): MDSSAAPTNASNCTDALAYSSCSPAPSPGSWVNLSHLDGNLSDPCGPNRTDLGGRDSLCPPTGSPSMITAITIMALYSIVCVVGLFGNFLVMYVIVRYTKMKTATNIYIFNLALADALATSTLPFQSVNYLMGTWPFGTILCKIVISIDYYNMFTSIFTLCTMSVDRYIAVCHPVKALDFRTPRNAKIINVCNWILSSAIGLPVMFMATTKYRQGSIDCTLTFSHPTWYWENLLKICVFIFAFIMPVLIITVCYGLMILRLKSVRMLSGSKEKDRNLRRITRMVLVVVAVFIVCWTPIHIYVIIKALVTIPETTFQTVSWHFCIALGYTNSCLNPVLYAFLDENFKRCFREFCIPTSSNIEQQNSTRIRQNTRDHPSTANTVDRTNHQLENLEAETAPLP
Where [1] appears, read: 1 μM test substance, inhibition of specific [3H]-naloxone binding.

Where two headings read alike, the source gives them in different places.

The inhibition is the drop in the measured response relative to a control, in per cent. As usually defined, the Ki is the equilibrium dissociation constant of an inhibitor or competing ligand from its target.

Turning to `Cc1cc(C2(O)CCC(C(c3ccc(Cl)cc3)N(C)C)CC2)ccc1F` (centres unmarked) [compound 160, 4-[(4-chloro-phenyl)-dimethylamino-methyl]-1-(4-fluoro-3-methyl-phenyl)-cyclohexanol], under setting [1], the inhibition at 1 µM was found to be 67%. On the same count and under the same terms, to `Cc1ccccc1C1(O)CCC(C(c2ccc(Cl)cc2)N(C)C)CC1` (centres unmarked) [compound 161, 4-[(4-chloro-phenyl)-dimethylamino-methyl]-1-o-tolyl-cyclohexanol] belongs 60%; to `CN(C)C(c1ccc(Cl)cc1)C1CCC(O)(c2ccc(F)cc2)CC1` (centres unmarked) [compound 162, 4-[(4-chloro-phenyl)-dimethylamino-methyl]-1-(4-fluoro-phenyl)-cyclohexanol], 59%; to `CN(C)C(c1ccc(Cl)cc1)C1CCC(O)(CCc2ccccc2)CC1` (centres unmarked) [compound 163, 4-[(4-chloro-phenyl)-dimethylamino-methyl]-1-phenethyl-cyclohexanol], 81%. Same read-out and setting: the value for `COc1cccc(C2(O)CCC(C(c3ccc(Cl)cc3)N(C)C)CC2)c1` (centres unmarked) [compound 164, 4-[(4-chloro-phenyl)-dimethylamino-methyl]-1-(3-methoxy-phenyl)-cyclohexanol] was 58%; that for `Cc1ccc(C2(O)CCC(C(c3ccc(Cl)cc3)N(C)C)CC2)cc1` (centres unmarked) [compound 165, 4-[(4-chloro-phenyl)-dimethylamino-methyl]-1-p-tolyl-cyclohexanol] was 52%.

For `CN(C)C(c1ccc(Cl)cc1)C1CCC(O)(c2cc(F)cc(F)c2)CC1` (centres unmarked) [compound 166, 4-[(4-chloro-phenyl)-dimethylamino-methyl]-1-(3,5-difluoro-phenyl)-cyclohexanol], under setting [1], the inhibition at 1 µM stood at 62%. The same measure, in the same setting: the value for `CCCCC1(O)CCC(C(c2ccc(Cl)cc2)N(C)C)CC1` (centres unmarked) [compound 167, 1-butyl-4-[(4-chloro-phenyl)-dimethylamino-methyl]-cyclohexanol] was 58%; that for `CCCCCCC1(O)CCC(C(c2ccc(Cl)cc2)N(C)C)CC1` (centres unmarked) [compound 168, 4-[(4-chloro-phenyl)-dimethylamino-methyl]-1-hexyl-cyclohexanol] was 58%; that for `CCCCCC1(O)CCC(C(c2ccc(Cl)cc2)N(C)C)CC1` (centres unmarked) [compound 169, 4-[(4-chloro-phenyl)-dimethylamino-methyl]-1-pentyl-cyclohexanol] was 71%. As to `CCCCCC1(O)CCC(C(c2ccc(Cl)cc2)N(C)C)CC1` (centres unmarked) [compound 170, 4-[(4-chloro-phenyl)-dimethylamino-methyl]-1-pentyl-cyclohexanol], the “μ-Opioid receptor, % inhibition [1 μM]” value under setting [1] turned out to be 63%.

As to `CN(C)C(c1ccc(Cl)cc1)C1CCC(O)(c2cccc(F)c2)CC1` (centres unmarked) [compound 171, 4-[(4-chloro-phenyl)-dimethylamino-methyl]-1-(3-fluoro-phenyl)-cyclohexanol], the inhibition at 1 µM under setting [1] stood at 67%. Same read-out and setting: the value for `CN(C)C(c1ccc(Cl)cc1)C1CCC(O)(Cc2ccc(F)cc2)CC1` (centres unmarked) [compound 172, 4-[(4-chloro-phenyl)-dimethylamino-methyl]-1-(4-fluoro-benzyl)-cyclohexanol] was 77%; that for `COc1cccc(CC2(O)CCC(C(c3ccc(Cl)cc3)N(C)C)CC2)c1` (centres unmarked) [compound 173, 4-[(4-chloro-phenyl)-dimethylamino-methyl]-1-(3-methoxy-benzyl)-cyclohexanol] was 84%. As for `COc1ccc(CN(C(C)=O)C2CCC(C(c3ccccc3)N(C)C)CC2)cc1` (centres unmarked) [compound 176, N-(4-((dimethylamino)(phenyl)methyl)cyclohexyl)-N-(4-methoxybenzyl)-acetamide], the inhibition at 1 µM was 86% and the inhibition constant Ki stood at 19 nM. On to `CC(=O)N(C(C)Cc1c[nH]c2ccccc12)C1CCC(C(c2ccccc2)N(C)C)CC1` (centres unmarked) [compound 177], for which the “μ-Opioid receptor, % inhibition [1 μM]” value amounted to 86% and the Ki is 7.2 nM.

For `CC(=O)N(C(C)Cc1c[nH]c2ccccc12)C1CCC(C(c2ccccc2)N(C)C)CC1` (centres unmarked) [compound 178, N-(1-(1H-indol-3-yl)propan-2-yl)-N-(4-((dimethylamino)(phenyl)methyl)-cyclohexyl)acetamide], the inhibition at 1 µM was 96% and the inhibition constant Ki stood at 1.2 nM. Take `CC(=O)N(Cc1ccc(F)cc1)C1CCC(C(c2ccccc2)N(C)C)CC1` (centres unmarked) [compound 179, N-(4-((dimethylamino)(phenyl)methyl)cyclohexyl)-N-(4-fluorobenzyl)acetamide]: the inhibition at 1 µM is 99% and the Ki was found to be 3 nM.

With `CCCC(=O)N(c1ccccc1)C1CCC(C(c2ccccc2)N(C)C)CC1` (centres unmarked) [compound 180, N-(4-((dimethylamino)(phenyl)methyl)cyclohexyl)-N-phenylbutyramide], the inhibition at 1 µM was found to be 90%. Take `CCCC(=O)N(CCc1c[nH]c2ccccc12)C1CCC(C(c2ccccc2)N(C)C)CC1` (centres unmarked) [compound 181, N-(2-(1H-indol-3-yl)ethyl)-N-(4-((dimethylamino)(phenyl)methyl)-cyclohexyl)butyramide]: the inhibition at 1 µM was 95% and the Ki stood at 3.9 nM.

Turning to `CC(=O)N(CCc1c[nH]c2ccccc12)C1CCC(C(c2ccccc2)N(C)C)CC1` (centres unmarked) [compound 182, N-(2-(1H-indol-3-yl)ethyl)-N-(4-((dimethylamino)(phenyl)methyl)cyclohexyl)-acetamide], the inhibition at 1 µM worked out at 95% and the Ki came to 2.1 nM. For `CN(C)C(c1ccccc1)C1CCC(NC(=O)c2csc3ccccc23)CC1` (centres unmarked) [compound 183, benzo[b]thiophene-3-carboxylic acid [4-(dimethylamino-phenyl-methyl)-cyclohexyl]-amide] the same measures were 103% and 3.9 nM. For `CN(C)C(c1ccccc1)C1CCC(NC(=O)C2(c3ccc(Cl)cc3)CCCC2)CC1` (centres unmarked) [compound 184, 1-(4-chloro-phenyl)-cyclopentanecarboxylic acid [4-(dimethylamino-phenyl-methyl)-cyclohexyl]-amide] the same measures were 101% and 5.2 nM. The like results for `CCCc1ccc(C(=O)NC2CCC(C(c3cccs3)N(C)C)CC2)cc1` (centres unmarked) [compound 185, N-[4-(dimethylamino-thiophen-2-yl-methyl)-cyclohexyl]-4-propyl-benzamide] were, in that order, 100% and 37 nM. `CN(C)C(c1cccs1)C1CCC(NC(=O)c2cccc(C#N)c2)CC1` (centres unmarked) [compound 186, 3-cyano-N-[4-(dimethylamino-thiophen-2-yl-methyl)-cyclohexyl]-benzamide]: the inhibition at 1 µM stood at 100% and the Ki worked out at 18 nM.

On to `CN(C)C(c1ccccc1)C1CCC(NC(=O)c2cccc(Cl)c2)CC1` (centres unmarked) [compound 187, 3-chloro-N-[4-(dimethylamino-phenyl-methyl)-cyclohexyl]-benzamide], for which the inhibition at 1 µM came to 100% and the Ki turned out to be 8.5 nM. The like results for `COc1c(C(=O)NC2CCC(C(c3ccccc3)N(C)C)CC2)csc1Cl` (centres unmarked) [compound 188, 5-chloro-4-methoxy-thiophene-3-carboxylic acid [4-(dimethylamino-phenyl-methyl)-cyclohexyl]-amide] were, in that order, 100% and 5.2 nM. The like results for `CN(C)C(c1ccccc1)C1CCC(NC(=O)c2ccc(Cl)c(Cl)c2)CC1` (centres unmarked) [compound 189, 3,4-dichloro-N-[4-(dimethylamino-phenyl-methyl)-cyclohexyl]-benzamide] were, in that order, 99% and 11 nM.
